Ends that are not written are not given here.
What was measured:
rat gastric emptying = assay: Rat gastric emptying assay (methyl cellulose/phenol red test meal); assay type: in vivo; settings: vehicle 66
Experimental: 7. RAT GASTRIC EMPTYING PROTOCOL
Methyl Cellulose (MC) Test Meal
1. Disperse MC in water at 80° C. at a final concentration of 1.5% under continuous stirring. Cool to room temperature.
2. Add Phenol Red (50 mg/100) to solution.
3. Keep solution stirring during entire experiment.
1. Food deprive animals for 18 hours.
2. Inject test drug/prop. glycol or prop. glycol alone intraperitoneally.
3. After 5 minutes, gavage 1.5 mL of Pheno Red/MC solution
1. After 20 minutes, decapitate animal
2. Clamp stomach at the pylorus and cardia ends, and rinse in 0.9% NaCl.
3. Place stomach in 100 mL of 0.1N NaOH, cut into small pieces, and homogenize for 30 seconds.
4. Let settle at room temperature for 60 minutes.
5. In centrifuge tube, add 5 mL of supernatant and 0.5 mL of trichloroacetic acid (29% w/v), and centrifuge at 2,800 rpm for 20 minutes.
6. Decant supernatant, and add 4 mL of 0.5N NaOH and read absorbance at a wavelength of 560 nm.
The standard stomach is determined from the phenol red recovered in stomachs of rats decapitated immediately after intragastric infusion of MC/phenol red.

[1] = system: isolated guinea pig gallbladder; assay: Isolated guinea pig gallbladder assay (contraction, % CCK-induced maximal response); settings: Table 2; for % contraction: Cavia porcellus
Experimental: 3. GUINEA PIG GALL BLADDER ASSAY
Gallbladders are removed from guinea pigs sacrificed by cervical dislocation. The isolated gallbladders are cleaned of adherent connective tissue and cut into two rings from each animal (2-6 mm in length). […] Tissues are connected via gold chains and stainless steel mounting wires to isometric force displacement transducers (Grass, Model FT03 D). Responses are then recorded on a polygraph (Grass, Model 7E).
Rings are gradually stretched (over a 120 min. period) to a basal resting tension of 1 gm which is maintained throughout the experiment. During the basal tension adjustment period, the rings are exposed to acetylcholine (10^-6 M) four times to verify tissue contractility. The tissues are then exposed to a submaximal dose of sulfated CCK-8 (Sigma, 3×10^-9 M). After obtaining a stable response, the tissues are washed out 3 times rapidly and every 5 to 10 minutes for 1 hour to reestablish a stable baseline.
As a final test, ACH (10 μM) is added to induce maximal contraction.

[2] = literature background; cited from earlier work
[3] = intraperitoneally at 0.1 μmoles/kg

COc1ccc(N(C(=O)CN2C(=O)C(Cc3n[nH]c4ccccc34)C(=O)N(c3ccccc3)c3ccccc32)C(C)C)cc1 (stereo not shown) [CCK-A agonist 1, 2[3(1H-Indazol-3-ylmethyl)-2,4-dioxo-5-phenyl-2,3,4,5-tetrahydro-benzo[b]1,4]diazepin1-ylN-isopropyl-N-(4-methoxy-phenyl) acetamide, reference compound]
rat gastric emptying: % emptying (rat gastric emptying; [3]): 6%
% contraction ([1]; delivered at 3 μM): 87%

CCK-8: CCK8 is the Cterminal octapeptide of CCK (DYMGWMDF; ends and bridges not checked; UniProt P06307 96-103, looked up) [reference compound]
rat gastric emptying: % emptying (rat gastric emptying; CCK-8 intraperitoneally at 30 nmoles/kg): 0%
Isolated guinea pig gallbladder: % contraction ([1]; CCK-8 delivered at 1 μM): 100%

COc1ccc(N(C(=O)CN2C(=O)C(Cc3n[nH]c4ccccc34)C(=O)N(c3ccccn3)c3ccccc32)C(C)C)cc1 (stereo not shown) [CCK-A agonist 2, reference compound]
rat gastric emptying: % emptying (rat gastric emptying; [3]): 2.5%
% contraction ([1]; delivered at 30 μM): 100%

B1: CCK: a peptide found in the gastrointestinal tract and the central nervous system (peptide, UniProt P06307 21-115, looked up)
Cholecystokinin: QPVPPADPAGSGLQRAEEAPRRQLRVSQRTDGESRAHLGALLARYIQQARKAPSGRMSIVKNLQNLDPSHRISDRDYMGWMDFGRRSAEEYEYPS
modifications: Cholecystokinin
notes: a peptide found in the gastrointestinal tract and the central nervous system
inhibition of gastric emptying in humans [2]: inhibit gastric emptying in humans

— patent US5795887A, “Method of inducing cholecystokinin agonist activity using 1,4- Benzodiazepine compounds” (Glaxo Wellcome Inc., priority 1994, dated 1998)
